How the values were obtained:
Rattus norvegicus [1] = species on record: Rattus norvegicus; assay: Inhibition of rat recombinant geranylgeranyltransferase type I expressed in Escherichia coli assessed as residual enzyme activity for geranylgeranylation of K-Ras4B at 50 uM incubated for 30 mins in presence of [3H]GGPP by scintillation counting assay relative to control
Rattus norvegicus [2] = species on record: Rattus norvegicus; assay: Inhibition of rat recombinant geranylgeranyltransferase type I expressed in Escherichia coli assessed as residual enzyme activity for geranylgeranylation of RhoA at 50 uM incubated for 30 mins in presence of [3H]GGPP by scintillation counting assay relative to control

Structure (SMILES) | Activity (Rattus norvegicus [1]) [%] | Activity (Rattus norvegicus [2]) [%]
C=CCS[C@H]1[C@@H](C(=O)O)[C@H](c2ccc(Cl)c(Cl)c2)N(S(=O)(=O)c2ccc(C)cc2)[C@@H]1CC1CCCC1 | 12.1 | 8.6
CCC[C@@H]1[C@@H](SCCC(=O)OC(C)(C)C)[C@@H](C(=O)O)[C@H](c2cccc(F)c2)N1S(=O)(=O)c1ccc(C)cc1 | 20.2 | 7.8
COc1ccc(S[C@H]2[C@@H](C(=O)O)[C@H](c3ccc(Cl)cc3)N(S(=O)(=O)c3ccc(Cl)cc3)[C@@H]2C(C)C)cc1 | 48.7 | 8
Cc1ccc([C@@H]2C[C@@H](Sc3ccc(Cl)cc3)[C@H](C(=O)O)CN2S(=O)(=O)c2ccc(Cl)cc2)cc1 | 42.3 | 3.3
C=CCS[C@H]1[C@@H](C(=O)O)[C@H](c2ccc(OC)c(OC)c2)N(S(=O)(=O)c2ccc(C)cc2)[C@@H]1CCCCCC | 22.3 | 8.1
Cc1ccc(S(=O)(=O)N2[C@H](CC3CCCC3)[C@@H](SCCC(=O)OC(C)(C)C)[C@@H](C(=O)O)[C@@H]2c2cccc(F)c2)cc1 | 31.9 | 8.2
CCOc1ccc([C@@H]2C[C@@H](SCc3ccc(Cl)cc3)[C@H](C(=O)O)CN2S(=O)(=O)c2ccc(C)cc2)cc1 | 3.1 to 3.7 | 2.6
Cc1ccc(S(=O)(=O)N2C[C@@H](C(=O)O)[C@H](SCCc3ccccc3)C[C@H]2c2ccc3c(c2)OCO3)cc1 | 6.5 to 9.2 | 2
CCCC[C@@H]1[C@@H](Sc2ccc(C)cc2)[C@@H](C(=O)O)[C@H](c2cccc(F)c2)N1S(=O)(=O)c1ccc(C)cc1 | 31.5 | 7.1
CCCCCC[C@@H]1[C@@H](Sc2ccc(C)cc2)[C@@H](C(=O)O)[C@H](c2ccc(Cl)cc2)N1S(=O)(=O)c1ccccc1 | 15 | 7.5
COc1ccc([C@@H]2C[C@@H](SCc3ccc(Cl)cc3)[C@H](C(=O)O)CN2S(=O)(=O)c2ccc(Cl)cc2)cc1 | 20.8 to 27.1 | 8.5
C=CCS[C@H]1[C@@H](C(=O)O)[C@H](c2ccc(Cl)cc2)N(S(=O)(=O)c2ccccc2C)[C@@H]1CC1CCCC1 | 22.4 | 4.9
CC(C)CCS[C@H]1[C@@H](C(=O)O)[C@H](c2ccc(Cl)cc2)N(S(=O)(=O)c2ccccc2)[C@@H]1C(C)C | 28.1 | 5.9
C=CCS[C@H]1[C@@H](C(=O)O)[C@H](c2ccc(C#N)cc2)N(S(=O)(=O)c2ccc(C)cc2)[C@@H]1C(C)C | 23.1 | 9.3
CC[C@@H]1[C@@H](Sc2ccc(OC)cc2)[C@@H](C(=O)O)[C@H](c2cccc(Cl)c2)N1S(=O)(=O)c1ccc(C)cc1 | 25.5 | 6.5
Cc1ccccc1S(=O)(=O)N1[C@H](CC2CCCC2)[C@@H](SCCC(=O)OC(C)(C)C)[C@@H](C(=O)O)[C@@H]1c1ccc(Cl)cc1 | 10 | 7.8

Structure (SMILES) | Activity (Rattus norvegicus [1]) [%] | Activity (Rattus norvegicus [2]) [%]
C=CCS[C@H]1[C@@H](C(=O)O)[C@H](c2ccc(C(C)C)cc2)N(S(=O)(=O)c2ccc(C)cc2)[C@@H]1CC1CCCC1 | 31.7 | 6.1
C=CCS[C@H]1[C@@H](C(=O)O)[C@H](c2ccc(Cl)c(Cl)c2)N(S(=O)(=O)c2ccc(C)cc2)[C@@H]1CCCC | 21.4 | 9.6
Cc1ccc(S(=O)(=O)N2C[C@@H](C(=O)O)[C@H](SCCc3ccccc3)C[C@H]2c2cccc(Br)c2)cc1 | 4.7 to 7.3 | 3.1
CCCCCS[C@@H]1C[C@@H](c2cccc(Br)c2)N(S(=O)(=O)c2ccc(C)cc2)C[C@H]1C(=O)O | 28.5 to 85.1 | 10.8
Cc1ccc(S(=O)(=O)N2C[C@@H](C(=O)O)[C@H](SCC(C)C)C[C@H]2c2cccc(Br)c2)cc1 | 11.4 to 18.8 | 1.3
Cc1ccc(S(=O)(=O)N2C[C@@H](C(=O)O)[C@H](SCC(C)C)C[C@H]2c2ccccc2)cc1 | 26 to 85.1 | 10.7
CCCCCC[C@@H]1[C@@H](SC2CCCC2)[C@@H](C(=O)O)[C@H](c2ccc(C#N)cc2)N1S(=O)(=O)c1ccc(C)cc1 | 20.1 | 7.4
C=CCS[C@H]1[C@@H](C(=O)O)[C@H](c2ccc(Cl)cc2)N(S(=O)(=O)c2ccccc2C)[C@@H]1CCCCCC | 24.9 | 6
CCCC[C@@H]1[C@@H](Sc2ccc(OC)cc2)[C@@H](C(=O)O)[C@H](c2cccc(F)c2)N1S(=O)(=O)c1ccc(C)cc1 | 27.4 | 3.5
Cc1ccc([C@@H]2C[C@@H](SCCc3ccccc3)[C@H](C(=O)O)CN2S(=O)(=O)c2ccc(C)cc2)cc1 | 22.6 to 35.4 | 12.4
CCC[C@@H]1[C@@H](Sc2ccc(C)cc2)[C@@H](C(=O)O)[C@H](c2cccc(F)c2)N1S(=O)(=O)c1ccc(C)cc1 | 14.7 | 4.1
CCCCS[C@@H]1C[C@@H](c2cccc(Br)c2)N(S(=O)(=O)c2ccc(C)cc2)C[C@H]1C(=O)O | 5.9 to 9 | -1.5
COc1ccc([C@@H]2C[C@@H](SCCc3ccccc3)[C@H](C(=O)O)CN2S(=O)(=O)c2ccc(C)cc2)cc1 | 28.8 to 29.9 | 6.1
CCCCCC[C@@H]1[C@@H](Sc2ccc(C)cc2)[C@@H](C(=O)O)[C@H](c2ccc(Cl)c(Cl)c2)N1S(=O)(=O)c1ccc(C)cc1 | 21.3 | 9.2
Cc1ccc(S(=O)(=O)N2C[C@@H](C(=O)O)[C@H](SCc3ccccc3)C[C@H]2c2ccccc2F)cc1 | 12.8 to 15.7 | 8.1
C=CCS[C@H]1[C@@H](C(=O)O)[C@H](c2cccc(F)c2)N(S(=O)(=O)c2ccc(C)cc2)[C@@H]1CC1CCCC1 | 30.4 | 9.7

The remaining lines, values ahead:

Activity (Rattus norvegicus [1]) [%] | Activity (Rattus norvegicus [2]) [%] | Structure (SMILES)
10.7 to 26 | 4.5 | Cc1ccc(S(=O)(=O)N2C(c3ccc(Cl)c(Cl)c3)CC=C(C(=O)O)C2c2cccc(Cl)c2)cc1 (stereo not drawn)
17.7 to 21.3 | 12.1 | Cc1ccc(S(=O)(=O)N2[C@@H](c3ccc(Cl)cc3)C(C(=O)O)=CC[C@H]2c2ccc(Cl)c(Cl)c2)cc1
21.3 to 24.5 | 13 | Cc1ccccc1S(=O)(=O)N1C[C@@H](C(=O)O)[C@H](SCc2ccc(Cl)cc2)C[C@H]1c1ccc(Cl)cc1
23.9 to 30.9 | 0.5 | COc1ccc([C@@H]2C[C@@H](SCc3ccc(Cl)cc3)[C@H](C(=O)O)CN2S(=O)(=O)c2ccccc2C)cc1
11.5 to 15.8 | 4.6 | Cc1ccc(S(=O)(=O)N2C[C@@H](C(=O)O)[C@H](SCc3ccccc3)C[C@H]2c2ccc(Cl)cc2)cc1
11 to 23.1 | 7 | Cc1ccc(S(=O)(=O)N2[C@@H](c3cccc(Br)c3)C(C(=O)O)=CC[C@H]2c2cccc(Cl)c2)cc1
8.7 to 12 | 7.8 | Cc1ccccc1S(=O)(=O)N1C[C@@H](C(=O)O)[C@H](SCc2ccccc2)C[C@H]1c1ccc(Cl)cc1
15.6 to 81.1 | 12.4 | Cc1cccc([C@H]2C(C(=O)O)=CC[C@@H](c3ccc(Cl)cc3)N2S(=O)(=O)c2ccccc2C)c1
33.1 | 26.7 | O=C(O)C1=CC[C@@H](c2ccc(Cl)cc2)N(S(=O)(=O)c2ccc(Cl)cc2)[C@H]1c1cccc(Cl)c1
23.7 | 9.1 | Cc1ccccc1S(=O)(=O)N1[C@@H](c2ccc(Cl)cc2)C(C(=O)O)=C[C@H]1CC1CCCC1
40 | 4.6 | Cc1ccc(S(=O)(=O)N2C[C@@H](C(=O)O)[C@H](Sc3ccccc3)C[C@H]2c2ccc(Cl)cc2)cc1
111 | 6 | Cc1ccc(S(=O)(=O)N2C[C@@H](C(=O)O)[C@H](Sc3ccc(Cl)cc3)C[C@H]2c2cccc(Cl)c2)cc1
18.7 to 22.8 | 11.3 | Cc1ccc(S(=O)(=O)N2[C@@H](c3ccc(Br)cc3)C(C(=O)O)=CC[C@H]2c2ccc(Cl)c(Cl)c2)cc1
25.9 to 28.7 | 11.9 | COc1ccc([C@@H]2C[C@@H](SCc3ccccc3)[C@H](C(=O)O)CN2S(=O)(=O)c2ccc(Cl)cc2)cc1
10.2 to 13.8 | 5.3 | Cc1ccc([C@@H]2C[C@@H](SCCc3ccccc3)[C@H](C(=O)O)CN2S(=O)(=O)c2ccccc2C)cc1
97.2 | 11.9 | COc1ccc([C@@H]2C[C@@H](Sc3ccccc3)[C@H](C(=O)O)CN2S(=O)(=O)c2ccc(Cl)cc2)cc1
11.2 to 12.6 | 4.1 | Cc1ccccc1S(=O)(=O)N1C[C@@H](C(=O)O)[C@H](SCCc2ccccc2)C[C@H]1c1ccc(Cl)cc1
9.8 to 24.4 | 7.9 | Cc1ccc(S(=O)(=O)N2[C@@H](c3cccc(Cl)c3)C(C(=O)O)=CC[C@H]2c2cccc(Br)c2)cc1
75.5 | 7.8 | Cc1ccccc1S(=O)(=O)N1C[C@@H](C(=O)O)[C@H](Sc2ccccc2)C[C@H]1c1ccc(Cl)cc1
64.1 | 14.2 | Cc1ccc(S(=O)(=O)N2C[C@@H](C(=O)O)[C@H](Sc3ccc(Cl)cc3)C[C@H]2c2ccccc2)cc1
22 to 29.6 | 17.2 | Cc1ccc([C@@H]2C[C@@H](SCc3ccc(Cl)cc3)[C@H](C(=O)O)CN2S(=O)(=O)c2ccccc2)cc1
29.2 to 31.9 | 13.4 | COc1ccc([C@@H]2C[C@@H](SCc3ccc(Cl)cc3)[C@H](C(=O)O)CN2S(=O)(=O)c2ccccc2)cc1
5.4 to 13.4 | 3 | Cc1ccccc1S(=O)(=O)N1[C@@H](c2cccc(F)c2)C(C(=O)O)=CC[C@H]1c1ccc(Cl)cc1
83.5 | 13 | Cc1ccccc1S(=O)(=O)N1C[C@@H](C(=O)O)[C@H](Sc2ccc(Cl)cc2)C[C@H]1c1ccc(Cl)cc1
43.7 to 43.8 | 6 | Cc1ccc(S(=O)(=O)N2[C@@H](c3cccc(Cl)c3)C(C(=O)O)=CC[C@H]2c2cccc(Cl)c2)cc1
8.6 to 24.9 | 3.2 | Cc1ccc(S(=O)(=O)N2[C@@H](c3cccc(Br)c3)C(C(=O)O)=CC[C@H]2c2ccc(Cl)c(Cl)c2)cc1
10.6 to 19.2 | 8.8 | Cc1ccccc1S(=O)(=O)N1[C@@H](c2cccc(Br)c2)C(C(=O)O)=CC[C@H]1c1ccc(Cl)cc1

Reference: ChEMBL document CHEMBL4421722, “Inhibitors of protein prenyltransferases” (2013)
